Results reported in ChEMBL document CHEMBL4138122, “Azaphenothiazines - promising phenothiazine derivatives. An insight into nomenclature, synthesis, structure elucidation and biological properties” (Eur J Med Chem, 2017).
Converted amounts (≈) assume the structure as drawn.

Tests used:
Mus musculus [1] = assay: Neuropharmacological activity in iv dosed Charles River Swiss mouse assessed as minimum dose at which reactive signs were observed in half of mouse tested; type: functional
Mus musculus [2] = assay: Anti-inflammatory activity in mouse IL-1-induced paw inflammation model assessed as inhibition of neutrophil infiltration at 10 mg/kg, po; type: functional; conditions: for inhibition in vivo at 10 mg/kg: Mus musculus, po
[3] = target: Intercellular adhesion molecule 1 (Homo sapiens, UniProt P05362); assay: Inhibition of ICAM1 (unknown origin)
PBMC [4] = assay: Inhibition of LPS-induced TNFalpha profduction in human PBMC at 5 ug/ml; type: functional
PBMC [5] = assay: Cytotoxicity in human PBMCs assessed as reduction in cel viability at 50 ug/ml; type: cell-based
[6] = Inhibition of soybean 15-lipoxygenase; parameters: species or system Glycine max
PBMC [7] = assay: Inhibition of PHA-induced cell proliferation of human PBMC at 50 ug/ml incubated for 4 days by MTT method; type: functional; conditions: 96 h
Mus musculus [8] = assay: Analgesic activity in mouse assessed as reduction in phenylquinone-induced number of writhes at 20 mg/kg, ip; type: functional; parameters: scale not given: the % may be the effect or the level left
MCF7 = assay: Cytotoxicity against human MCF7 cells incubated for 72 hrs by WST1 dye based assay; type: functional, cell-based; conditions: MCF7, 72 h
UO-31 = assay: Growth inhibition of human UO31 cells at 10 uM; type: functional; conditions: read-out: GI
[9] = target: Cholinesterase (Equus caballus) (UniProt P81908); assay: Inhibition of horse serum BChE at 10 uM
HFF-1 = assay: Cytotoxicity against human HFF1 cells incubated for 72 hrs by WST1 dye based assay; type: cell-based; conditions: HFF-1, 72 h
Mus musculus [10] = assay: Anti-inflammatory activity in IL1-induced paw inflammation Balb/c mouse model assessed as inhibition of neutrophil migration at 10 mg/kg, po, pretreated for 30 mins followed by IL1 challenge measured after 2 hrs by spectrophotometric method; type: functional

Sequence of Intercellular adhesion molecule 1 (P05362 whole entry): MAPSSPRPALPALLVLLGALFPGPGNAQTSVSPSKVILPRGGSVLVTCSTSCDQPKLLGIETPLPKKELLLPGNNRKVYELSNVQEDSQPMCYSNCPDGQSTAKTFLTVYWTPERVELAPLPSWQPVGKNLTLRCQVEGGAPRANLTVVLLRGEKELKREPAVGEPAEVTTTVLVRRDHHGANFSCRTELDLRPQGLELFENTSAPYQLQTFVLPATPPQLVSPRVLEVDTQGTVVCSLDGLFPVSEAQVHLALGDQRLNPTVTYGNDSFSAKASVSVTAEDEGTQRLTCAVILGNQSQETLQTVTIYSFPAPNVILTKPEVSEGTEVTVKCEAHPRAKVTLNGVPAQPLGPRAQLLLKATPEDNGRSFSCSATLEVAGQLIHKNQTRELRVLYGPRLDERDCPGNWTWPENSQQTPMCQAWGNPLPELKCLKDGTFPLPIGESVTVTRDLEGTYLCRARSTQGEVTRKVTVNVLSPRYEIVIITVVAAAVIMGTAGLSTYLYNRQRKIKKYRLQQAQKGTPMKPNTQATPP
Sequence of Cholinesterase (Equus caballus) (P81908 whole entry): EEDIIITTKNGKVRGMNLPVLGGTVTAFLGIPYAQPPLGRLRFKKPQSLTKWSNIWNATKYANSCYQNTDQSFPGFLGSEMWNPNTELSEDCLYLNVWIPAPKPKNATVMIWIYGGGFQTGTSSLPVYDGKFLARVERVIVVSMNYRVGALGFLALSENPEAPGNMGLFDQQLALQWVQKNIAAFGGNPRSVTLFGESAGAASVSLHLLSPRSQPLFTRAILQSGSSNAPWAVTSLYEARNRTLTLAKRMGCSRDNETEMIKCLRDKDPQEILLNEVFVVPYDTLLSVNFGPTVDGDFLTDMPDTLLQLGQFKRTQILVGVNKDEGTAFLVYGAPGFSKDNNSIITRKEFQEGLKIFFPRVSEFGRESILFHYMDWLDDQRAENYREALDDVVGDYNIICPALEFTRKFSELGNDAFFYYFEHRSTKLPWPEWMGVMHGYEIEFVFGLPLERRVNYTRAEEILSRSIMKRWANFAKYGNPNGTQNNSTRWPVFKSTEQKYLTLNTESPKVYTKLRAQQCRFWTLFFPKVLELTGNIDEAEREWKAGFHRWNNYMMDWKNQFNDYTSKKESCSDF

SMILES: CC(C)N(CCSC(=O)N1c2ccccc2Sc2cccnc21)C(C)C
- MED50 (Mus musculus [1]): 0.058 to 1.8 mg/kg

SMILES: O=C(O)c1ccc(CC2CCN(Cc3ccc4c(c3)Nc3nccnc3S4)CC2)cc1
- inhibition in vivo at 10 mg/kg (Mus musculus [2]): 88%
- IC50 [3]: 0.42 to 1 µM

SMILES: C=CCN1c2cnccc2Sc2cccnc21
- inhibition at 5 µg/mL (PBMC [4]): > 85%
- Activity (PBMC [5]): <= 22%

SMILES: CN1CCN(c2cc3c(nn2)Nc2ccccc2S3)CC1
- IC50 [6]: > 287 µM

SMILES: c1cnc2c(c1)Sc1ccncc1N2CCN1CCOCC1
- inhibition at 50 µg/mL (PBMC [7]): 60%
- Activity (PBMC [5]): <= 22%

SMILES: CSc1ccc2c(c1)N(C(=O)SCCN(C(C)C)C(C)C)c1ncccc1S2
- MED50 (Mus musculus [1]): 0.058 to 1.8 mg/kg

SMILES: CCN(CC)CCSc1nnc2c3c(cnn12)Sc1ccccc1N3
- Activity (Mus musculus [8]): 54 - 65%

SMILES: C#CCN1c2cccnc2Sc2cccnc21
- IC50 (MCF7): 3.9 mg/L (≈ 16.3 µM)

SMILES: c1ccc2c(c1)Nc1nnc(N3CCOCC3)cc1S2
- IC50 [6]: > 287 µM

SMILES: c1ccc(CN2c3nc4ccccc4cc3Sc3cc4ccccc4nc32)cc1
- inhibition of growth at 10 µM (UO-31): 57 to 73%

SMILES: c1cnc2c(c1)Sc1ccncc1N2CCN1CCCC1
- inhibition at 5 µg/mL (PBMC [4]): > 85%
- Activity (PBMC [5]): <= 22%

SMILES: O=C(NCCCl)NCCCN1c2ccc(Cl)cc2Sc2cc3ccccc3nc21
- inhibition [9]: 80%

SMILES: CC(CN(C)C)CN1c2cnccc2Sc2cccnc21 (centres undefined)
- inhibition at 50 µg/mL (PBMC [7]): 60%
- inhibition at 5 µg/mL (PBMC [4]): > 85%
- Activity (PBMC [5]): <= 22%

SMILES: c1cnc2c(c1)Sc1ccncc1N2
- inhibition at 50 µg/mL (PBMC [7]): > 70%
- Activity (PBMC [5]): <= 22%

SMILES: CN1CCN(Cc2nnc3c4c(cnn23)Sc2ccccc2N4)CC1
- Activity (Mus musculus [8]): 54 - 65%

SMILES: O=C(O)CC1C2CCCC1CN(Cc1ccc3c(c1)Nc1nccnc1S3)C2 (stereo in doubt; 64d)
- inhibition (INH) (Mus musculus [2]): 80.6%
- IC50 [3]: 2.3 µM

SMILES: CSc1nnc2c3c(cnn12)Sc1ccccc1N3
- Activity (Mus musculus [8]): 54 - 65%

SMILES: C#CCN1c2cnccc2Sc2cccnc21
- inhibition at 5 µg/mL (PBMC [4]): > 85%
- Activity (PBMC [5]): <= 22%

SMILES: c1ccc2c(c1)Nc1nnc(N3CCCC3)cc1S2
- IC50 [6]: > 287 µM

SMILES: O=C(O)CC1CC2(CCN(Cc3ccc4c(c3)Nc3nccnc3S4)CC2)C1
- inhibition in vivo at 10 mg/kg (Mus musculus [2]): 88.8%
- IC50 [3]: 0.42 to 1 µM

SMILES: O=C(O)C1CC2(CCN(Cc3ccc4c(c3)Nc3nccnc3S4)CC2)C1
- inhibition in vivo at 10 mg/kg (Mus musculus [2]): 82.8%
- IC50 [3]: 0.42 to 1 µM

SMILES: O=[N+]([O-])c1cnccc1N1c2cccnc2Sc2cccnc21
- IC50 (MCF7): 4.6 mg/L (≈ 14.2 µM)
- IC50 (HFF-1): ≥ 50 mg/L

SMILES: CC(C)N(CCSC(=O)N1c2ccccc2Sc2cc(Cl)cnc21)C(C)C
- MED50 (Mus musculus [1]): 0.058 to 1.8 mg/kg

SMILES: CS(=O)(=O)NC1CCN(Cc2ccc3c(c2)Nc2nccnc2S3)CC1
- inhibition in vivo at 10 mg/kg (Mus musculus [10]): 83.4 to 89.7%
- IC50 [3]: 0.27 to 1.4 µM

SMILES: O=C(O)CC1C2CCC1CN(Cc1ccc3c(c1)Nc1nccnc1S3)C2 (centres undefined)
- inhibition in vivo at 10 mg/kg (Mus musculus [2]): 83.2%

SMILES: CC(=O)NCCCN1c2cnccc2Sc2cccnc21
- inhibition at 50 µg/mL (PBMC [7]): 60%
- Activity (PBMC [5]): <= 22%

SMILES: CCN(CC)CCN1c2cnccc2Sc2cccnc21
- inhibition at 50 µg/mL (PBMC [7]): 60%
- Activity (PBMC [5]): <= 22%

SMILES: CS(=O)(=O)NCC1CCN(Cc2ccc3c(c2)Nc2nccnc2S3)CC1
- inhibition in vivo at 10 mg/kg (Mus musculus [10]): 77.6%
- IC50 [3]: 0.27 to 1.4 µM

SMILES: CC(C)N(CCSC(=O)N1c2cc(C(F)(F)F)ccc2Sc2cccnc21)C(C)C
- MED50 (Mus musculus [1]): 0.058 to 1.8 mg/kg

SMILES: CS(=O)(=O)NCCC1CCN(Cc2ccc3c(c2)Nc2nccnc2S3)CC1
- inhibition in vivo at 10 mg/kg (Mus musculus [10]): 83.4 to 89.7%
- IC50 [3]: 0.27 to 1.4 µM

SMILES: c1ccc(CN2c3cnccc3Sc3cccnc32)cc1
- inhibition at 5 µg/mL (PBMC [4]): > 85%
- Activity (PBMC [5]): <= 22%

SMILES: O=S(=O)(NC1CCN(Cc2ccc3c(c2)Nc2nccnc2S3)CC1)N1CCOCC1
- inhibition in vivo at 10 mg/kg (Mus musculus [10]): 66.1%
- IC50 [3]: 0.27 to 1.4 µM

SMILES: CN1CCN(CC#CCN2c3cccnc3Sc3cccnc32)CC1
- IC50 (MCF7): 7.5 mg/L (≈ 21.3 µM)

SMILES: CC(C)N(CCSC(=O)N1c2cc(F)ccc2Sc2cccnc21)C(C)C
- MED50 (Mus musculus [1]): 0.058 to 1.8 mg/kg

SMILES: CN(C)CCCN1c2cnccc2Sc2cccnc21
- inhibition at 50 µg/mL (PBMC [7]): > 70%
- inhibition at 5 µg/mL (PBMC [4]): > 85%
- Activity (PBMC [5]): <= 22%

SMILES: c1ccc2c(c1)Nc1nnc(N3CCCCC3)cc1S2
- IC50 [6]: > 287 µM

SMILES: CN(C)CCSc1nnc2c3c(cnn12)Sc1ccccc1N3
- Activity (Mus musculus [8]): 54 - 65%

SMILES: O=[N+]([O-])c1ccc(N2c3nc4ccccc4cc3Sc3cc4ccccc4nc32)cc1
- inhibition of growth at 10 µM (UO-31): 57 to 73%
